Tests used:
Experiment in all cases: Test B pre-/postemergence plant response
Assay type in all cases: in vivo
soybean (Glycine max) = settings: for Plant response rating, Soybean: Postemergence, scale 0 to 100 (0 no effect, 100 complete control)
In short: (§1)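 Steps: sow seed in loam–sand soil and spray preemergence, or grow plants in peat-based medium to 1–4 leaves (2–18 cm) and spray postemergence; formulation is non-phytotoxic solvent plus surfactant; hold in greenhouse 13–15 days; score visually vs controls, 0 = no effect, 100 = complete control.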

wild oat (Avena fatua) = system: wild oat (Avena fatua)
In short: as §1

[1] = system: Surinam grass (Brachiaria decumbens); settings: for Plant response rating, Surinam Grass: Postemergence, scale 0 to 100 (0 no effect, 100 complete control)
In short: as §1

[2] = system: velvetleaf (Abutilon theophrasti); settings: for Plant response rating, Velvetleaf: Postemergence, scale 0 to 100 (0 no effect, 100 complete control)
In short: as §1

[3] = system: ragweed (common ragweed, Ambrosia elatior); settings: for Plant response rating, Ragweed: Postemergence, scale 0 to 100 (0 no effect, 100 complete control)
In short: as §1

[4] = system: pigweed (Amaranthus retroflexus)
In short: as §1

corn (Zea mays) = system: corn (Zea mays)
In short: as §1

[5] = system: yellow nutsedge (Cyperus esculentus)
In short: as §1

[6] = system: green foxtail (Setaria viridis)
In short: as §1

[7] = system: lambsquarters (Chenopodium album)
In short: as §1

[8] = system: downy bromegrass (Bromus tectorum)
In short: as §1

[9] = system: large crabgrass (Digitaria sanguinalis)
In short: as §1

[10] = system: bermudagrass (Cynodon dactylon)
In short: as §1

[11] = system: Italian ryegrass (Lolium multiflorum); settings: for Plant response rating, Ryegrass, Italian: Postemergence, scale 0 to 100 (0 no effect, 100 complete control)
In short: as §1

[12] = system: cocklebur (Xanthium strumarium)
In short: as §1

kochia (Kochia scoparia) = system: kochia (Kochia scoparia)
In short: as §1

[13] = system: blackgrass (Alopecurus myosuroides)
In short: as §1

[14] = 62 g ai/ha, postemergence, 0 is no effect, 100 is complete control, 13 to 15 days
[15] = 31 g ai/ha, postemergence, scale 0 to 100, 0 is no effect, 100 is complete control
[16] = Postemergence, 125 g ai/ha, scale 0 to 100 (0 no effect, 100 complete control)
[17] = Postemergence, 250 g ai/ha, scale 0 to 100 (0 no effect, 100 complete control)

O=C1CCCC(O)=C1C(=O)c1cnc(-c2ccsc2)n(CC2CCCO2)c1=O (stereo not drawn) [Compound 98]
Soybean plant response rating (0 to 100 scale) (soybean (Glycine max); [14]): 98 | Plant response rating, Soybean (soybean (Glycine max); 125 g ai/ha): 98 | Plant response rating, Soybean (soybean (Glycine max); 250 g ai/ha): 100 | Plant response rating, Oat, Wild (wild oat (Avena fatua); [15]): 10 | Oat, Wild plant response rating (0 to 100 scale) (wild oat (Avena fatua); [14]): 20 | Plant response rating, Oat, Wild (wild oat (Avena fatua); [16]): 20 | Plant response rating, Oat, Wild (wild oat (Avena fatua); [17]): 50 | Surinam Grass plant response rating (0 to 100 scale) [1, 14]: 75 | Plant response rating, Surinam Grass ([1]; 125 g ai/ha): 85 | Plant response rating, Surinam Grass ([1]; 250 g ai/ha): 90 | Velvetleaf plant response rating (0 to 100 scale) [2, 14]: 95 | Plant response rating, Velvetleaf ([2]; 125 g ai/ha): 95 | Plant response rating, Velvetleaf ([2]; 250 g ai/ha): 98 | Ragweed plant response rating (0 to 100 scale) [3, 14]: 75 | Plant response rating, Ragweed ([3]; 125 g ai/ha): 80 | Plant response rating, Ragweed ([3]; 250 g ai/ha): 90 | Plant response rating, Pigweed [4, 15]: 100 | Pigweed plant response rating (0 to 100 scale) [4, 14]: 100 | Plant response rating, Pigweed [4, 16]: 100 | Plant response rating, Pigweed [4, 17]: 100 | Plant response rating, Corn (corn (Zea mays); [15]): 35 | Corn plant response rating (0 to 100 scale) (corn (Zea mays); [14]): 35 | Plant response rating, Corn (corn (Zea mays); [16]): 55 | Plant response rating, Corn (corn (Zea mays); [17]): 70 | Plant response rating, Nutsedge, Yellow [5, 15]: 50 | Nutsedge, Yellow plant response rating (0 to 100 scale) [5, 14]: 60 | Plant response rating, Nutsedge, Yellow [5, 16]: 70 | Plant response rating, Nutsedge, Yellow [5, 17]: 75 | Plant response rating, Foxtail, Green [6, 15]: 30 | Foxtail, Green plant response rating (0 to 100 scale) [6, 14]: 85 | Plant response rating, Foxtail, Green [6, 16]: 85 | Plant response rating, Foxtail, Green [6, 17]: 95 | Plant response rating, Lambsquarters [7, 15]: 95 | Lambsquarters plant response rating (0 to 100 scale) [7, 14]: 98 | Plant response rating, Lambsquarters [7, 16]: 100 | Plant response rating, Lambsquarters [7, 17]: 100 | Plant response rating, Bromegrass, Downy [8, 15]: 5 | Bromegrass, Downy plant response rating (0 to 100 scale) [8, 14]: 5 | Plant response rating, Bromegrass, Downy [8, 16]: 5 | Plant response rating, Bromegrass, Downy [8, 17]: 40 | Plant response rating, Crabgrass, Large [9, 15]: 75 | Crabgrass, Large plant response rating (0 to 100 scale) [9, 14]: 75 | Plant response rating, Crabgrass, Large [9, 16]: 80 | Plant response rating, Crabgrass, Large [9, 17]: 95 | Plant response rating, Bermudagrass [10, 15]: 75 | Bermudagrass plant response rating (0 to 100 scale) [10, 14]: 80 | Plant response rating, Bermudagrass [10, 16]: 85 | Plant response rating, Bermudagrass [10, 17]: 98 | Ryegrass, Italian plant response rating (0 to 100 scale) [11, 14]: 5 | Plant response rating, Ryegrass, Italian ([11]; 125 g ai/ha): 15 | Plant response rating, Ryegrass, Italian ([11]; 250 g ai/ha): 15 | Plant response rating, Cocklebur [12, 15]: 98 | Cocklebur plant response rating (0 to 100 scale) [12, 14]: 100 | Plant response rating, Cocklebur [12, 16]: 100 | Plant response rating, Cocklebur [12, 17]: 100 | Plant response rating, Kochia (kochia (Kochia scoparia); [15]): 65 | Kochia plant response rating (0 to 100 scale) (kochia (Kochia scoparia); [14]): 70 | Plant response rating, Kochia (kochia (Kochia scoparia); [16]): 80 | Plant response rating, Kochia (kochia (Kochia scoparia); [17]): 98 | Plant response rating, Blackgrass [13, 15]: 0 | Blackgrass plant response rating (0 to 100 scale) [13, 14]: 5 | Plant response rating, Blackgrass [13, 16]: 20 | Plant response rating, Blackgrass [13, 17]: 50

— patent publication US8952024B2, “Herbicidal pyrimidone derivatives” (E I du Pont de Nemours and Company, priority 2009, dated 2015)
